Data reported in US11655235B2, “Pyrrolidine and piperidine compounds” (YUHAN CORPORATION, priority 2019, dated 2023).

How the values were obtained:
Assay type in all cases: biochemical
recombinant human PREP = target: T1, recombinant human PREP (Homo sapiens, UniProt P48147); experiment: PREP inhibition, fluorogenic substrate Z-Gly-Pro-AMC; conditions: Inhibitory Activity (IC50, nM) PREP, recombinant human PREP
T1 construct: purchased R&D System
T1 sequence (P48147 1-710): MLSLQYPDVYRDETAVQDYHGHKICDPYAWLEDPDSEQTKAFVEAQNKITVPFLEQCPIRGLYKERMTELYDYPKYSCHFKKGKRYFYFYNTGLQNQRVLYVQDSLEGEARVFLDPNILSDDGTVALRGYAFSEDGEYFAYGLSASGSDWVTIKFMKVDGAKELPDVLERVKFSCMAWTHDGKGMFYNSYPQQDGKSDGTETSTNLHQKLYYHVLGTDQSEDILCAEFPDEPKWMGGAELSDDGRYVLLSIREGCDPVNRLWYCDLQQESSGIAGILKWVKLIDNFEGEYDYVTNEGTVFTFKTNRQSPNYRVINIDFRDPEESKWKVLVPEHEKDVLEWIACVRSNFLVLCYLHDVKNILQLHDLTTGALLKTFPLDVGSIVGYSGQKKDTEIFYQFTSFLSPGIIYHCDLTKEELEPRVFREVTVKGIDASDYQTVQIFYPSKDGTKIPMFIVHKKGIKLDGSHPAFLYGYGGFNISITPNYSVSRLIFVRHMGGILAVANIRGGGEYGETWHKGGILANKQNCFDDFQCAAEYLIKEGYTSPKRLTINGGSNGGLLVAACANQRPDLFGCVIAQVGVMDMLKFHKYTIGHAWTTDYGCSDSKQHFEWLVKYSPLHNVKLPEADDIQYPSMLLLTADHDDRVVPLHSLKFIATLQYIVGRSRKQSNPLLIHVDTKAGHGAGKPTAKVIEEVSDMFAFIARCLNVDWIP
Experimental: (§1) The compounds according to the present technology were evaluated in terms of the inhibitory effect on the activity of dipeptidyl peptidases including FAP by using a substrate producing fluorescent substances upon enzymatic decomposition. The test was conducted at 25° C. to get a final reaction volume of 100 μL in a 96 black well plate. […] Briefly, the test compounds were dissolved in dimethyl sulfoxide (DMSO) at a concentration of 20 mM and then subjected to serial dilution, thereby creating an 8 point curve. As for the control group, a 6 point curve created by serial dilution of Talabostat in the same buffer solution was used. Fluorescence intensity was measured using a microplate reader (Flexstation3, Molecular Devices) under the wavelength condition exciting at 380 nm and reading the emission at 460 nm. The inhibitory effect of the test compounds was measured as a decrease (%) in the signal rate as compared to the control group without any inhibitor. Data was fixed to a logistic model with four variables and IC50 value was calculated using GraphPad Prism program. As for recombinant human DPP4 (R&D Systems), 25 mM tris (pH 8.0) buffer as a buffer solution and H-Gly-Pro-AMC (Bachem) as a substrate were used. As for recombinant human DPP7 (R&D Systems), 25 mM MES (pH 6.0) buffer as a buffer solution and Lys-Pro-AMC (Bachem) as a substrate were used. As for recombinant human DPP8 (PBS Bioscience), as a buffer solution, a 10 mM tris (pH 7.4) buffer comprising 10 mM of magnesium chloride and 0.05% of Tween 20, and Z-Ala-Pro-AMC (BPS Bioscience) as a substrate were used. As for recombinant human DPP9 (R&D Systems), a 25 mM tris (pH 8.0) buffer as a buffer solution and H-Gly-Pro-AMC (Bachem) as a substrate were used. As for recombinant human PREP (R&D System), as a buffer solution, a 25 mM tris (pH 7.5) buffer comprising 250 mM sodium chloride and 2.5 mM DTT (Dithiolthreitol), and Z-Gly-Pro-AMC (Bachem) as a substrate were used. The evaluation was made by using 10 ng of DPP4, PDD7, and PREP, 20 ng of DPP8, and 50 ng of DPP9 based on the final reaction. In the evaluation of DPP4, the test compounds were subjected to serial dilution in a buffer under the condition containing up to 0.1% of DMSO. In the evaluation of DPP7, DPP8, DPP9, and PREP, the test compounds were subjected to serial dilution in each buffer under the condition containing up to 0.5% of DMSO.

DPP4 = DPP4 (Homo sapiens, UniProt P27487); experiment: DPP4 inhibition, fluorogenic substrate H-Gly-Pro-AMC; set-up: purchased R&D Systems; conditions: recombinant human DPP4
Sequence of DPP4 (P27487 whole entry): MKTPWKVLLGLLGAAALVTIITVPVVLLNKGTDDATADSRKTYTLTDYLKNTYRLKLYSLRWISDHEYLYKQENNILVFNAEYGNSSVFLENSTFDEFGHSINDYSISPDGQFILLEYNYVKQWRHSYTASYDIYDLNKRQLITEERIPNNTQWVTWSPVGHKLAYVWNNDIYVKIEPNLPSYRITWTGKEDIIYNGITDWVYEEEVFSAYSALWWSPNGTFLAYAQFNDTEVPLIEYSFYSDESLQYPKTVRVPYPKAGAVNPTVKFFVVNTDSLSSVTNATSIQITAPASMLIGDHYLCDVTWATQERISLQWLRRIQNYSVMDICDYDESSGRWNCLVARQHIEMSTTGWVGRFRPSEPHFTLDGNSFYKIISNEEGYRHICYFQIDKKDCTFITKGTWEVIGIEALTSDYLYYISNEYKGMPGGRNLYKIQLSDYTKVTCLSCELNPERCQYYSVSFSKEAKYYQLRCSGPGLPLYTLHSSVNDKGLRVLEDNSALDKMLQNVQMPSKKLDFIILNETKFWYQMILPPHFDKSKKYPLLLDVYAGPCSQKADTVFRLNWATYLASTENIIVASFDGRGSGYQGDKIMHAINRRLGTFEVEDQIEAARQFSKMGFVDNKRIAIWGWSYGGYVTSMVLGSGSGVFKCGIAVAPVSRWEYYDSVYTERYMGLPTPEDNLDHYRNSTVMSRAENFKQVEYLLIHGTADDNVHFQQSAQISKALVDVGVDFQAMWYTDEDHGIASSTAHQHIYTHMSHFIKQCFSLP

recombinant human DPP7 = target: T2, recombinant human DPP7 (Homo sapiens, UniProt Q9UHL4); experiment: DPP7 inhibition, fluorogenic substrate Lys-Pro-AMC; conditions: recombinant human DPP7
T2 construct: purchased R&D Systems
Outline: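 Inhibitors are titrated in an 8-point series into the enzyme's assay buffer (DMSO no more than 0.5%). Substrate cleavage at 25 °C is followed by fluorescence, excitation 380 nm and emission 460 nm. IC50 values come from a four-variable logistic model.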

recombinant human DPP9 = target: T3, recombinant human DPP9 (Homo sapiens, UniProt Q86TI2); experiment: DPP9 inhibition, fluorogenic substrate H-Gly-Pro-AMC; conditions: recombinant human DPP9
T3 construct: purchased R&D Systems
T3 sequence (Q86TI2 whole entry): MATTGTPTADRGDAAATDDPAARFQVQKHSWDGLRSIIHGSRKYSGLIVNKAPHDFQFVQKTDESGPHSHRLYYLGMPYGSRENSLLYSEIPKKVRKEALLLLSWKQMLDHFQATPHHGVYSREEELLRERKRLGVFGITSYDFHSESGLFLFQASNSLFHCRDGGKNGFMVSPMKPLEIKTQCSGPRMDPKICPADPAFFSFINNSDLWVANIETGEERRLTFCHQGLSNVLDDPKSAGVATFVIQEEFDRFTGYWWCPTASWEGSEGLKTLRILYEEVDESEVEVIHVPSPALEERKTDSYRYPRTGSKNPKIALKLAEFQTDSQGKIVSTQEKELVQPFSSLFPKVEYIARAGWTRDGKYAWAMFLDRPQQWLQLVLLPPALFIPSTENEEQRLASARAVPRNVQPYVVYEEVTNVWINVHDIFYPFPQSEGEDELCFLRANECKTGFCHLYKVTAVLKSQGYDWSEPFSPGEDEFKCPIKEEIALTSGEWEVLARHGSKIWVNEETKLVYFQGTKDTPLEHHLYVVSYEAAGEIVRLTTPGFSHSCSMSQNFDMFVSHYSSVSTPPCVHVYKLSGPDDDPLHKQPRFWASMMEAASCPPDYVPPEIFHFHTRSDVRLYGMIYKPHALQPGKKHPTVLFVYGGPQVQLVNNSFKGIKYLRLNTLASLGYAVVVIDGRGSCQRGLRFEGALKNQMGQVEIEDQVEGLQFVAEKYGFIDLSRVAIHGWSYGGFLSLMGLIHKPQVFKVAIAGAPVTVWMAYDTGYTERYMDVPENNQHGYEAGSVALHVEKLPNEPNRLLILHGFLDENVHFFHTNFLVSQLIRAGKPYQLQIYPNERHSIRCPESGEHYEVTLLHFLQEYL
Experimental: as §1

Recombinant human FAP [1] = target: T4, Recombinant human FAP (Homo sapiens, UniProt Q12884); experiment: FAP FRET assay, FGF21-sequence FRET peptide substrate; conditions: FRET peptide with human FGF21 sequence, 6 μM, 37° C.
T4 construct: purchased R&D systems
T4 sequence (Q12884 1-760): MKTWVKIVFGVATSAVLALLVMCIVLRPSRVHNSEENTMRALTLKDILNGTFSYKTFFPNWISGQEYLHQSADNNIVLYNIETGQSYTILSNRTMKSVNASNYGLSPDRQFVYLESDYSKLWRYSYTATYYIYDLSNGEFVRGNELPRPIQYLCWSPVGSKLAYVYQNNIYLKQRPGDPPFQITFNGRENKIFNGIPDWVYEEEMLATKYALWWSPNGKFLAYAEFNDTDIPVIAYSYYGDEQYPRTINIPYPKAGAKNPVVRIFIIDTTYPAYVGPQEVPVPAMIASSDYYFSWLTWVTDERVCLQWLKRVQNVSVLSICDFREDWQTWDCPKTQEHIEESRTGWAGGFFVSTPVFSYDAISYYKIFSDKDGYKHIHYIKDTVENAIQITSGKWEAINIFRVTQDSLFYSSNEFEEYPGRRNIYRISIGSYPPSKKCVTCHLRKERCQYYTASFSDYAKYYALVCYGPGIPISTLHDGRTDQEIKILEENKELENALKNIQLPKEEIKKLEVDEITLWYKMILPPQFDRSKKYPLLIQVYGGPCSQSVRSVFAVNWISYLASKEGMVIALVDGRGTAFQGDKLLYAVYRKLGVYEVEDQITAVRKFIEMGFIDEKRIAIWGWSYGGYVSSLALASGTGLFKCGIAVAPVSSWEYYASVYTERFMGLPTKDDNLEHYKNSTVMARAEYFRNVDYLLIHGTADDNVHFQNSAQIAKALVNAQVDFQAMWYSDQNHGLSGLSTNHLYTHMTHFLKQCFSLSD
Outline: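 FRET peptide bearing human FGF21 sequence (6 μM final) cleaved by 10 ng recombinant human FAP at 37° C in HEPES pH 7.2 buffer with NaCl, BSA and EDTA, DMSO up to 0.1%. Signal-rate decrease versus uninhibited control fitted to a four-variable logistic model for IC50.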

Recombinant human FAP [2] = target: T4, Recombinant human FAP; experiment: FAP inhibition, fluorogenic substrate Z-Gly-Pro-AMC; conditions: recombinant human FAP, substrate Z-Gly-Pro-AMC
Outline: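 Eight-point compound dilutions (≤0.1% DMSO) were incubated at 25° C with 10 ng recombinant human FAP in Tris pH 7.5/1 M NaCl/BSA buffer and Z-Gly-Pro-AMC. Inhibition was taken as % drop in fluorescence rate (380/460 nm) against uninhibited control; IC50 came from a four-parameter logistic fit.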

| Structure (SMILES) | IC50 (recombinant human PREP) | IC50 (DPP4) | IC50 (recombinant human DPP7) | IC50 (recombinant human DPP9) | IC50 (Recombinant human FAP [1]) | IC50 (Recombinant human FAP [2]) |
| --- | --- | --- | --- | --- | --- | --- |
| CN(c1ccc(OC(F)(F)F)c2ncccc12)[C@H]1CCN(CC(=O)N2C[C@@H](F)C[C@H]2C#N)C1 [Example 160, (2S,4S)-4-fluoro-1-[2-[(3S)-3-[methyl-[8-(trifluoromethoxy)-5-quinolyl]amino]pyrrolidin-1-yl]acetyl]pyrrolidine-2-carbonitrile] | 1080 nM | 1.78 µM | 0.0778 µM | 2.82 µM | 0.0049 µM | – |
| N#C[C@@H]1C[C@H](F)CN1C(=O)CN1CC[C@@H](Nc2cnc3nc(Cl)ccc3c2)C1 [Example 172, (2S,4S)-4-fluoro-1-[2-[(3R)-3-[(7-chloro-1,8-naphthyridin-3-yl)amino]pyrrolidin-1-yl]acetyl]pyrrolidine-2-carbonitrile] | 4240 nM | 1.87 µM | 4.9 µM | 5.4 µM | 0.0093 µM | – |
| N#C[C@@H]1C[C@H](F)CN1C(=O)CN1CC[C@@H](Nc2c(F)ccc3ncccc23)C1 [Example 173, (2S,4S)-4-fluoro-1-[2-[(3R)-3-[(6-fluoro-5-quinolyl)amino]pyrrolidin-1-yl]acetyl]pyrrolidine-2-carbonitrile] | 1870 nM | 1.12 µM | 11.1 µM | 2.95 µM | 0.0053 µM | – |
| N#C[C@@H]1C[C@H](F)CN1C(=O)CN1CC[C@@H](Nc2cc(F)cc3ncccc23)C1 [Example 174, (2S,4S)-4-fluoro-1-[2-[(3R)-3-[(7-fluoro-5-quinolyl)amino]pyrrolidin-1-yl]acetyl]pyrrolidine-2-carbonitrile] | 2440 nM | 3.02 µM | 0.846 µM | 1.99 µM | 0.0026 µM | – |
| COc1cc(N[C@@H]2CCN(CC(=O)N3C[C@@H](F)C[C@H]3C#N)C2)c2cccnc2c1 [Example 177, (2S,4S)-4-fluoro-1-[2-[(3R)-3-[(7-methoxy-5-quinolyl)amino]pyrrolidin-1-yl]acetyl]pyrrolidine-2-carbonitrile] | 2920 nM | 3.42 µM | 0.0469 µM | 1.17 µM | 0.0026 µM | – |
| N#C[C@@H]1CCCN1C(=O)CN1CC[C@@H](Nc2ccc(C(F)(F)F)c3ncccc23)C1 [Example 201, (2S)-1-[2-[(3R)-3-[[8-(trifluoromethyl)-5-quinolyl]amino]pyrrolidin-1-yl]acetyl]pyrrolidine-2-carbonitrile] | 9150 nM | 26.3 µM | 3.91 µM | – | 0.0013 µM | – |
| N#C[C@@H]1CCCN1C(=O)CN1CC[C@H](Nc2cccc3ncc(F)cc23)C1 [Example 234, (2S)-1-[2-[(3S)-3-[(3-fluoro-5-quinolyl)amino]pyrrolidin-1-yl]acetyl]pyrrolidine-2-carbonitrile] | – | 63.6 µM | 6.08 µM | – | 0.0016 µM | 0.0013 µM |
| COc1ccc(N[C@H]2CCN(CC(=O)N3CCC[C@H]3C#N)C2)c2cccnc12 [Example 243, (2S)-1-[2-[(3S)-3-[(8-methoxy-5-quinolyl)amino]pyrrolidin-1-yl]acetyl]pyrrolidine-2-carbonitrile] | – | 16.9 µM | 3.24 µM | – | 0.004 µM | 0.0026 µM |
| N#Cc1ccc(N[C@H]2CCN(CC(=O)N3C[C@@H](F)C[C@H]3C#N)C2)c2cccnc12 [Example 267, 5-[[(3S)-1-[2-oxo-2-[(2S,4S)-2-cyano-4-fluoro-pyrrolidin-1-yl]ethyl]pyrrolidin-3-yl]amino]quinoline-8-carbonitrile] | 835 nM | 2.57 µM | 3.16 µM | – | 0.0015 µM | – |
| N#C[C@@H]1C[C@H](F)CN1C(=O)CN1CCC(Nc2ccc(F)c3ncccc23)CC1 [Example 330, (2S,4S)-4-fluoro-1-[2-[4-[(8-fluoro-5-quinolyl)amino]-1-piperidyl]acetyl]pyrrolidine-2-carbonitrile] | – | 3.29 µM | – | – | 0.0063 µM | 0.0028 µM |
| Cc1ccc(NC2CCN(CC(=O)N3C[C@@H](F)C[C@H]3C#N)CC2)c2cccnc12 [Example 331, (2S,4S)-4-fluoro-1-[2-[4-[(8-methyl-5-quinolyl)amino]-1-piperidyl]acetyl]pyrrolidine-2-carbonitrile] | – | 5.11 µM | – | – | 0.0065 µM | 0.0038 µM |
| N#C[C@@H]1C[C@H](F)CN1C(=O)CN1CCC(Nc2cc(C(F)(F)F)c3ncccc3c2)CC1 [Example 377, (2S,4S)-4-fluoro-1-[2-[4-[[8-(trifluoromethyl)-6-quinolyl]amino]-1-piperidyl]acetyl]pyrrolidine-2-carbonitrile] | 1400 nM | 6.61 µM | 0.178 µM | – | 0.0124 µM | – |
| N#Cc1ccc2c(OC3CCN(CC(=O)N4C[C@@H](F)C[C@H]4C#N)CC3)cccc2n1 [Example 417, 5-[[1-[2-oxo-2-[(2S,4S)-2-cyano-4-fluoro-pyrrolidin-1-yl]ethyl]-4-piperidyl]oxy]quinoline-2-carbonitrile] | – | 5.47 µM | – | – | 0.0065 µM | 0.0033 µM |
